The record followed here is patent US10087188B2, “Benzamide imidazopyrazine Btk inhibitors” (MERCK SHARP & DOHME CORP., priority 2014, dated 2018).

Like-named read-outs stand apart in the source and are kept apart here.

Assay [1] has as its target BTK enzyme (recombinant full-length BTK, hBTK) (Homo sapiens (Human), UniProt Q06187). Nature of the assay: Btk enzyme activity assay, LANCE TR-FRET. In kind it is biochemical. The following applies: 50 pM hBTK, 2 μM biotin-A5-peptide, 25 μM ATP; 60 minute compound & enzyme incubation; read-out: BTK binding IC50. The protocol: Btk Enzyme Activity Assay Methods
BTK enzymatic activity was determined with the LANCE (Lanthanide Chelate Excite) TR-FRET (Time-resolved fluorescence resonance energy transfer) assay. […] After 60 minutes incubation with detection reagents, reaction plates were read on a PerkinElmer EnVision plate reader using standard TR-FRET protocol.

The test system of assay [2] is HeLa cells. The experiment in a line: [3H] Adenosine uptake assay. The following applies: accumulation of tritiated adenosine into HeLa cells, compound concentration range 10 μM to 0.032 nM, read-out: ADU inhibition IC50 (adenosine uptake inhibition potency). It counts as cell-based. The gist of the method: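 Accumulation of tritiated adenosine in adherent HeLa cells, detected by scintillant-plate coincidence counting, gives IC50 via 4-parameter robust fit. Compound (constant 0.25% DMSO) applied 30 min ahead, then 60 min radiolabel exposure (added from 500 nM solution), ambient conditions, HBSS with 5% FBS.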

Sequence of BTK enzyme (recombinant full-length BTK, hBTK) (Q06187 whole entry): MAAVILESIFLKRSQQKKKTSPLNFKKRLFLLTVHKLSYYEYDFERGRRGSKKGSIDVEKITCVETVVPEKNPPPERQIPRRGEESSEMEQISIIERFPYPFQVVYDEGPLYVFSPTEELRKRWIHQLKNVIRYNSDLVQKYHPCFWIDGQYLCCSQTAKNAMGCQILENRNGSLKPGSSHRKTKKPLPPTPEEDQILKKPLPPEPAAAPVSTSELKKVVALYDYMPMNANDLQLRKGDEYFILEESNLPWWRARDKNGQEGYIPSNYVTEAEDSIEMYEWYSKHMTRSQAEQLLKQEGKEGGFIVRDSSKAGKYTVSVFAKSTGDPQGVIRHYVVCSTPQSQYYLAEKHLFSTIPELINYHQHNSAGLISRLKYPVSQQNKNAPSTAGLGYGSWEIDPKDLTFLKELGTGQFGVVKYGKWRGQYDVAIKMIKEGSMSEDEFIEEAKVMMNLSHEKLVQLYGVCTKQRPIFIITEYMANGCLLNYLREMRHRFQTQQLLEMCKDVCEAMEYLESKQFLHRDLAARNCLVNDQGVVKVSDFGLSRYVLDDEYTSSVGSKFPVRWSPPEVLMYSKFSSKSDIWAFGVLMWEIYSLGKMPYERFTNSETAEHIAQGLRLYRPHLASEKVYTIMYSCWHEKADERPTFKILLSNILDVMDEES

By IC50 is commonly meant the concentration at which inhibition is half-maximal. As for `CCOc1cc(C(=O)Nc2cc(C(F)(F)F)ccn2)ccc1-c1nc([C@@H]2C[C@@H]3[C@H](C2)[C@H]3C(=O)O)n2ccnc(N)c12` [Example 135, (1R,3R,5S,6r)-3-[8-amino-1-(2-ethoxy-4-{[4-(trifluoromethyl)pyridin-2-yl]carbamoyl}phenyl)imidazo[1,5-a]pyrazin-3-yl]bicyclo[3.1.0] hexane-6-carboxylic acid], the IC50 in assay [1] turned out to be 0.43 nM; in assay [2] (Homo sapiens, HeLa), 6780 nM.

For `Nc1nccn2c([C@@H]3CCC[C@H](C(=O)O)C3)nc(-c3ccc(C(=O)Nc4cc(C5CC5)ccn4)cc3F)c12` [Example 9, (1S,3R)-3-(8-amino-1-{4-[(4-cyclopropyl-pyridin-2-yl)carbamoyl]-2-fluorophenyl}imidazo[1,5-a]pyrazin-3-yl)cyclohexane-carboxylic acid], the IC50 in assay [1] came out at 1.2 nM; in assay [2] (Homo sapiens, HeLa), 4400 nM.

`CC(C)[C@@]1(C(=O)O)CC[C@H](N2C[C@H](c3nc(-c4ccc(C(=O)Nc5cc(C(F)(F)F)ccn5)cc4F)c4c(N)ncc(Cl)n34)OC[C@@H]2C)C1` [Example 203, (1R,3S)-3-{(2R,5S)-2-[8-amino-5-chloro-1-(2-fluoro-4-{[4-(trifluoromethyl)pyridin-2-yl]carbamoyl}phenyl)imidazo [1,5-a]pyrazin-3-yl]-5-methylmorpholin-4-yl}-1-(1-methylethyl) cyclopentanecarboxylic acid]: the IC50 in assay [1] was 1.9 nM; in assay [2] (Homo sapiens, HeLa) it was 891 nM.

Regarding `Nc1nccn2c(C34CCC(C(=O)O)(CC3)CC4)nc(-c3ccc(C(=O)Nc4cc(C(F)(F)F)ccn4)cc3)c12` [Example 168, 4-[8-amino-1-(4-{[4-(trifluoromethyl)pyridin-2-yl]carbamoyl}phenyl)imidazo[1,5-a]pyrazin-3-yl]bicyclo[2.2.2] octane-1-carboxylic acid], the 50% inhibitory concentration (IC50) came to 0.13 nM in assay [1] and 308 nM in assay [2] (Homo sapiens, HeLa).

Consider `C[C@]1(C(=O)O)CCCN(c2nc(-c3ccc(C(=O)Nc4cc(C(F)(F)F)ccn4)cc3)c3c(N)nccn23)C1` [Example 42, (3S)-1-[8-amino-1-(4-{[4-(trifluoromethyl)pyridin-2-yl]carbamoyl}phenyl)imidazo[1,5-a]pyrazin-3-yl]-3-methylpiperidine-3-carboxylic acid], for which the IC50 was found to be 22.9 nM in assay [1] and 2770 nM in assay [2] (Homo sapiens, HeLa).

For `CCOc1cc(C(=O)Nc2cc(C(F)(F)F)ccn2)c(F)cc1-c1nc([C@@H]2CC[C@](C)(C(=O)O)C2(C)C)n2ccnc(N)c12` [Example 114, (1S,3R)-3-[8-amino-1-(2-ethoxy-5-fluoro-4-{[4-(trifluoromethyl)pyridin-2-yl]carbamoyl}phenyl)imidazo[1,5-a]pyrazin-3-yl]-1,2,2-trimethylcyclopentane carboxylic acid], the IC50 in assay [1] came to 0.92 nM; in assay [2] (Homo sapiens, HeLa) it was 2750 nM.

Take `CCOc1cc(C(=O)Nc2cc(C(F)(F)F)ccn2)ccc1-c1nc([C@H]2CC[C@@](C(=O)O)(C(C)C)C2)n2c(Cl)cnc(N)c12` [Example 111, (1S,3S)-3-[8-amino-5-chloro-1-(2-ethoxy-4-{[4-(trifluoromethyl)pyridin-2-yl]carbamoyl}phenyl)imidazo[1,5-a]pyrazin-3-yl]-1-(1-methylethyl) cyclopentane-carboxylic acid]: the concentration for half-maximal inhibition (IC50) in assay [1] is 24.9 nM; in assay [2] (Homo sapiens, HeLa) it was 10000 nM.

Turning to `Nc1nccn2c([C@@H]3CC[C@H](C(=O)NC4(C(=O)O)CC4)C3)nc(-c3ccc(C(=O)Nc4cc(C(F)(F)F)ccn4)cc3)c12` [Example 16, 1-[({(1S,3R)-3-[8-amino-1-(4-{[4-(trifluoromethyl)pyridin-2-yl]carbamoyl}phenyl)imidazo[1,5-a]pyrazin-3-yl]cyclopentyl}carbonyl)amino] cyclopropane-carboxylic acid], the IC50 in assay [1] was 2.1 nM; in assay [2] (Homo sapiens, HeLa), 4780 nM.

With `Nc1nccn2c(-c3ccc(C(=O)O)[nH]3)nc(-c3ccc(C(=O)Nc4cc(C(F)(F)F)ccn4)cc3)c12` [Example 27, 5-[8-amino-1-(4-{[4-(trifluoromethyl)pyridin-2-yl]carbamoyl}phenyl)imidazo[1,5-a]pyrazin-3-yl]-1H-pyrrole-2-carboxylic acid], the IC50 in assay [1] turned out to be 2 nM; in assay [2] (Homo sapiens, HeLa) it was 10000 nM.

Consider `CCOc1cc(C(=O)Nc2cc(C(F)(F)F)n(C)n2)ccc1-c1nc([C@@H]2CC[C@](C(=O)O)(C(C)C)C2)n2ccnc(N)c12` [Example 59, (1R,3R)-3-[8-amino-1-(2-ethoxy-4-{[1-methyl-5-(trifluoromethyl)-1H-pyrazol-3-yl]carbamoyl}phenyl)imidazo[1,5-a]pyrazin-3-yl]-1-(1-methylethyl) cyclopentane-carboxylic acid], for which the IC50 in assay [1] is 24.1 nM; in assay [2] (Homo sapiens, HeLa), 10000 nM.

Regarding `CCOc1cc(C(=O)Nc2cc(C(F)(F)F)ccn2)ccc1-c1nc([C@@H]2CC[C@H](C(C)C)[C@H](C(=O)O)C2)n2ccnc(N)c12` [Example 98, (1R,2R,5R)-5-[8-amino-1-(2-ethoxy-4-{[4-(trifluoromethyl)pyridin-2-yl]carbamoyl}phenyl)imidazo[1,5-a]pyrazin-3-yl]-2-(1-methylethyl) cyclohexane-carboxylic acid], the 50% inhibitory concentration (IC50) in assay [1] was 4 nM; in assay [2] (Homo sapiens, HeLa), 8770 nM.

For `C[C@]1(C(=O)O)CC[C@H](N2CCO[C@@H](c3nc(-c4ccc(C(=O)Nc5cc(C6CC6)ccn5)cc4F)c4c(N)nccn34)C2)CC1` [Example 197, trans-4-[(2R)-2-(8-amino-1-{4-[(4-cyclopropylpyridin-2-yl)carbamoyl]-2-fluorophenyl}imidazo[1,5-a]pyrazin-3-yl)morpholin-4-yl]-1-methylcyclohexanecarboxylic acid], the 50% inhibitory concentration (IC50) in assay [1] worked out at 1.2 nM; in assay [2] (Homo sapiens, HeLa), 2950 nM.

For `CCOc1cc(C(=O)Nc2cc(C(F)(F)F)n(C)n2)ccc1-c1nc([C@@H]2CC[C@@](C(=O)O)(C(C)C)C2)n2ccnc(N)c12` [Example 52, (1S,3R)-3-[8-amino-1-(2-ethoxy-4-{[1-methyl-5-(trifluoromethyl)-1H-pyrazol-3-yl]carbamoyl}phenyl)imidazo[1,5-a]pyrazin-3-yl]-1-(1-methylethyl) cyclopentane-carboxylic acid], the IC50 in assay [1] was 9 nM; in assay [2] (Homo sapiens, HeLa), 10000 nM.

In the case of `CN1CC[C@H](c2nc(-c3ccc(C(=O)Nc4cc(C(F)(F)F)ccn4)cc3)c3c(N)nccn23)C[C@@H]1C(=O)O` [Example 83, (2R.4S)-4-[8-amino-1-(4-{[4-(trifluoromethyl)pyridin-2-yl]carbamoyl}phenyl)imidazo[1,5-a]pyrazin-3-yl]-1-methylpiperidine-2-carboxylic acid], the concentration for half-maximal inhibition (IC50) in assay [1] was 10.2 nM; in assay [2] (Homo sapiens, HeLa) it was 1140 nM.

Take `Nc1nccn2c(C34CCC(C(=O)O)(CC3)CC4)nc(-c3ccc(C(=O)Nc4cc(C(F)(F)F)ccn4)cc3Cl)c12` [Example 151, 4-[8-amino-1-(2-chloro-4-{[4-(trifluoromethyl)pyridin-2-yl]carbamoyl}phenyl)imidazo[1,5-a]pyrazin-3-yl]bicyclo[2.2.2] octane-1-carboxylic acid]: the half-inhibitory concentration (IC50) is 0.38 nM in assay [1] and 1490 nM in assay [2] (Homo sapiens, HeLa).

Turning to `C[C@]1(C(=O)O)CC[C@H](N2CCO[C@@H](c3nc(-c4ccc(C(=O)Nc5cc(C(F)F)ccn5)cc4)c4c(N)ncc(Cl)n34)C2)CC1` (stereo in doubt) [Example 196, trans-4-{(2R)-2-[8-amino-5-chloro-1-(4-{[4-(difluoromethyl)pyridin-2-yl]carbamoyl}phenyl)imidazo [1,5-a]pyrazin-3-yl]morpholin-4-yl}-1-methylcyclohexanecarboxylic acid], the half-maximal inhibitory concentration (IC50) in assay [1] stood at 7.5 nM; in assay [2] it was 4440 nM.

For the molecule `CCOc1cc(C(=O)Nc2cc(C(F)(F)F)ccn2)ccc1-c1nc([C@@H]2CC[C@@](C(=O)O)(C(C)C)C2)n2c(Cl)cnc(N)c12` [Example 109, (1S,3R)-3-[8-amino-5-chloro-1-(2-ethoxy-4-{[4-(trifluoromethyl)pyridin-2-yl]carbamoyl}phenyl)imidazo[1,5-a]pyrazin-3-yl]-1-(1-methylethyl)cyclo-pentanecarboxylic acid], the 50% inhibitory concentration (IC50) is 0.64 nM in assay [1] and 6840 nM in assay [2] (Homo sapiens, HeLa).

In the case of `Nc1nccn2c(-c3ccc(C(=O)O)o3)nc(-c3ccc(C(=O)Nc4cc(C(F)(F)F)ccn4)cc3)c12` [Example 28, 5-[8-amino-1-(4-{[4-(trifluoromethyl)pyridin-2-yl]carbamoyl}phenyl)imidazo[1,5-a]pyrazin-3-yl]furan-2-carboxylic acid], the concentration for half-maximal inhibition (IC50) amounted to 2.4 nM in assay [1] and 10000 nM in assay [2] (Homo sapiens, HeLa).

On to `C[C@]1(C(=O)O)CC[C@H](N2CCO[C@@H](c3nc(-c4ccc(C(=O)Nc5cc(C(F)F)ccn5)cc4)c4c(N)ncc(Cl)n34)C2)CC1` [Example 195, trans-4-{(2R)-2-[8-amino-5-chloro-1-(4-{[4-(difluoromethyl)pyridin-2-yl]carbamoyl}phenyl)imidazo [1,5-a]pyrazin-3-yl]morpholin-4-yl}-1-methylcyclohexanecarboxylic acid], for which the IC50 stood at 1 nM in assay [1] and 2440 nM in assay [2] (Homo sapiens, HeLa).

Consider `Nc1nccn2c([C@H]3CN(C4CC(C(=O)O)C4)CCO3)nc(-c3ccc(C(=O)Nc4cc(C(F)(F)F)ccn4)cc3)c12` (stereo partly drawn) [Example 179, 3-{(2R)-2-[8-amino-1-(4-{[4-(trifluoromethyl)pyridin-2-yl]carbamoyl}phenyl)imidazo [1,5-a]pyrazin-3-yl]morpholin-4-yl}cyclobutanecarboxylic acid], for which the IC50 in assay [1] was determined as 0.93 nM; in assay [2] (Homo sapiens, HeLa), 4730 nM.
